Laboratory results as given in ChEMBL document CHEMBL1121526, “Use of acetylacetone to prepare a prodrug of cycloserine” (1980).

How the values were obtained:
Staphylococcus aureus = assay: antibacterial activity was reported as zones of inhibition in the disk diffusion assay using staphylococcus aureus; type: functional
Mus musculus [1] = species: Mus musculus; assay: The compound was tested for urinary recovery was assayed for its content for total cycloserine content employing the chemical assay in mouse; type: functional, Urine
Escherichia coli = assay: antibacterial activity was reported as zones of inhibition in the disk diffusion assay using Escherichia coli; type: functional
Mus musculus [2] = species: Mus musculus; assay: The compound was tested for urinary recovery was assayed for its content of free cycloserine by employing the bioassay in mouse; type: functional, Urine

With `CNC(=O)NC1CON(C(=O)NC)C1=O` (stereo not given) the Diameter (Staphylococcus aureus) was less than 6 mm, the “Urinary recovery of total cycloserine” value (Mus musculus [1]) was less than 1% and the Diameter (Escherichia coli) was less than 6 mm. For the same compound, the “Urinary recovery of free cycloserine” value (Mus musculus [2]) was less than 1%.
`O=C(CCl)NC1CON(C(=O)CCl)C1=O` (stereo not given) was tested, and the Diameter (Staphylococcus aureus) was less than 6 mm, the “Urinary recovery of total cycloserine” value (Mus musculus [1]) was 43% and the Diameter (Escherichia coli) was less than 6 mm. For the same compound, the “Urinary recovery of free cycloserine” value (Mus musculus [2]) was 1.1%.
With `C/C(O)=C\C(C)=N\C1CONC1=O` (stereo not given) the Diameter (Staphylococcus aureus) was 36 mm, the “Urinary recovery of total cycloserine” value (Mus musculus [1]) was 64% and the Diameter (Escherichia coli) was 39 mm. The “Urinary recovery of free cycloserine” value (Mus musculus [2]) was 93%.
`CCOC(=O)NC1CONC1=O` (stereo not given) was tested, and the Diameter (Staphylococcus aureus) was less than 6 mm, the “Urinary recovery of total cycloserine” value (Mus musculus [1]) was 33% and the Diameter (Escherichia coli) was less than 6 mm. The “Urinary recovery of free cycloserine” value (Mus musculus [2]) was less than 1%.
`CC1(C)CC(O)=C/C(=N/C2CONC2=O)C1` (stereo not given) was tested, and the Diameter (Staphylococcus aureus) was less than 6 mm, the “Urinary recovery of total cycloserine” value (Mus musculus [1]) was 55% and the Diameter (Escherichia coli) was less than 6 mm. The “Urinary recovery of free cycloserine” value (Mus musculus [2]) was less than 1%.
`O=C(CCl)NC1CONC1=O` (stereo not given) was tested, and the Diameter (Staphylococcus aureus) was less than 6 mm, the “Urinary recovery of total cycloserine” value (Mus musculus [1]) was 70% and the Diameter (Escherichia coli) was less than 6 mm. For the same compound, the “Urinary recovery of free cycloserine” value (Mus musculus [2]) was 1%.
`O=C(NC(=O)C(Cl)(Cl)Cl)NC1CONC1=O` (stereo not given) was tested, and the Diameter (Staphylococcus aureus) was less than 6 mm, the “Urinary recovery of total cycloserine” value (Mus musculus [1]) was 55% and the Diameter (Escherichia coli) was 14 mm. For the same compound, the “Urinary recovery of free cycloserine” value (Mus musculus [2]) was less than 1%.
`O=C(NC1CONC1=O)C1CCCCC1` (stereo not given) was tested, and the Diameter (Staphylococcus aureus) was less than 6 mm, the “Urinary recovery of total cycloserine” value (Mus musculus [1]) was 53% and the Diameter (Escherichia coli) was less than 6 mm. The “Urinary recovery of free cycloserine” value (Mus musculus [2]) was 1%.
For `CNC(=O)NC1CONC1=O` (stereo not given), the Diameter (Staphylococcus aureus) was 25 mm, the “Urinary recovery of total cycloserine” value (Mus musculus [1]) was 16% and the Diameter (Escherichia coli) was 22 mm. For the same compound, the “Urinary recovery of free cycloserine” value (Mus musculus [2]) was less than 1%.
For `N[C@@H]1CONC1=O` [CYCLOSERINE], the Diameter (Staphylococcus aureus) was 36 mm, the “Urinary recovery of total cycloserine” value (Mus musculus [1]) was 45% and the Diameter (Escherichia coli) was 39 mm. The “Urinary recovery of free cycloserine” value (Mus musculus [2]) was 64%.
